Experimental data from US11007177B2, “Compositions comprising a combination of a substituted flavonoid and a substituted indole for treating ocular diseases” (University of Macau, priority 2015, dated 2021).

Test system: TSP-1 null mice
Assay: Corneal fluorescein staining in murine model of Sjögren's syndrome
Assay type: in vivo
Details: 5 μL eye drops twice daily, 30 μM quercetin and/or 0.5 μM I3O in PBS
Experimental: Mice. Thrombospondin (TSP)-1 null mice (C57BL/6 background), were bred in-house in a pathogen-free facility at Boston University School of Medicine, Boston, Mass. All experiments were conducted in accordance with institutional guidelines and ARVO Statement of the Use of Animals in Ophthalmic and Vision Research.
Corneal Fluorescein Staining. Sodium fluorescein (1%), 1 μl was applied to the cornea of mice under anesthesia. Three minutes later, eyes were flushed with PBS to remove excess fluorescein, and corneal staining was evaluated and photographed with a slit lamp biomicroscope (Humphrey-Zeiss, Dublin, Calif.) using a cobalt blue light. Punctate staining was recorded using a standardized National Eye Institute grading system of 0 to 3 for each of the five areas of the cornea (Lemp, 1995, CLAO J. 21:221-232).
TSP-1 deficient (null) mice (12 wk old) were treated with eyedrops twice daily for a period of two weeks. The 5 μL eye drops were either PBS as a control or 0.5 μM I3O and 30 μM quercetin in PBS, 0.5 μM I3O alone in PBS, or 30 μM quercetin alone in PBS. […] Clinical signs of dry eye disease, including effect on the corneal surface and peroxidase levels in tears, were measured at baseline (prior to initiating treatment) and at the end of week 1 and effect on the corneal surface was assayed again at the end of week 2. […]

O=C1Nc2ccccc2/C1=C1/Nc2ccccc2/C1=N\O [Heterodimer I3O, indirubin-3′-oxime]
corneal surface / corneal fluorescein score, week 2 (week 2, FIG. 5): small improvement in corneal fluorescein score at week 2, but it was not significant

O=c1c(O)c(-c2ccc(O)c(O)c2)oc2cc(O)cc(O)c12 [quercetin]
corneal surface / corneal fluorescein score, week 1 (week 1, FIG. 5): significant improvement in the corneal surface
